Reference: patent publication US6436705B1, “Shape stabilized erythrocytes” (The United States of America as represented by the …, priority 1997, dated 2002)
Where two headings read alike, the source gives them in different places.

Legend:
[1] = test system: Red blood cells; experiment: Metabolic viability: ATP content of red blood cells over time; type: cell-based, human
Description: The metabolic viability of cross-linked cells was assayed by monitoring the production and depletion of ATP over time. DTBP cells were cross-linked in 5 mM DTBP 150 mM glucose for 5 hours at 4° C. The cells were then washed 3 times and incubated in 150 mM glucose for an additional 19 hrs. After washing to remove the glucose the cells were incubated at 4° C. in PBS for 72 hrs before being returned to 150 mM glucose for the final 24 hr incubation. At each time point cells were removed, washed, and spectrophotometrically assayed for ATP as described in the text. The glucose controls were cells treated in the same manor but without crosslinking, and the control cells are cells without exposure to glucose.

[2] = test system: Human erythrocytes; experiment: cells; type: cell-based
Description: Packed human erythrocytes from healthy donors were obtained from the National Naval Medical Center (Bethesda, Md.) within 48 h of donation and used within 7 days. Packed erythrocytes were washed twice in phosphate buffer solution (PBS) then re-suspended in PBS (1 vol PBS:1 vol packed cells). The erythrocyte suspension (100 ml) was placed on ice and carbon monoxide (CO) was bubbled through it for 2 hours. Saturation with CO (100%) was achieved under these conditions as detected with a CO-oximeter. Erythrocytes were packed and cross-linked with DTBP at 4° C. for different incubation times (from 1 to 24 h; 9 vol cross-linking solution: 1 vol packed cells). The cross-linking solution was prepared by dissolving DTBP in PBS (pH 7.8). After incubation DTBP was removed by repeated washing of the red cells in PBS (IEC Centra centrifuge for 10 min at 1008×g). Reversal of the cross-linking was carried out at room temperature with the reducing agent dithioerythritol (DTT) at a concentration of 10 mM in PBS (9 vol reducing solution: 1 vol packed cells) for 20 min or as indicated in the figure legends. DTT was removed by repeated washing of the red cells in PBS (IEC Centra centrifuge for 10 min at 1008×g). CO-treatment was reversed at room temperature using a hollow fiber membrane oxygenator model Capiox 308. Erythrocytes were processed through the oxygenator for 1 h. Saturation with oxygen (92%) was reached as detected with a CO-oximeter.
Erythrocytes were cross-linked with DTBP at different concentrations for different incubation times. 1 ml of the erythrocyte suspension was taken out at regular incubation times centrifuged and DTBP was removed (Eppendorf centrifuge for 3 min at 3000×g). Distilled water (1 ml) was added to the remaining packed cells. After 30 min the cells were again centrifugated (Eppendorf centrifuge for 3 min at 3000×g), and the supernatants were processed for hemolysis measurements. For determination of hemolysis the cyanmethemoglobin method was applied (see Brown in “Hematology: principles and procedures” pp. 29-31 (Lea and Febiger, eds., 1984)). Absorbance was measured at 540 nm and percent hemolysis was determined by Equation (1), supra, where the control sample was lysed in distilled water.
Erythrocyte stability in distilled water was tested after crosslinking reversal as well. Red blood cells were first cross-linked with DTBP then treated with DTT at different concentrations (from 1 to 10 mM) for different incubation times (from 5 to 20 min). Hemolysis in distilled water was measured as described above.

[3] = Homo sapiens, Erythrocyte, 4 h, read-out: hemolysis in distilled water

COC(=N)CCSSCCC(=N)OC [DTBP, Dimethyl-3,3′-dithiobispropionimidate]
ATP Content ([1]; 5 mM DTBP 5 h, 72 hrs in PBS): 51.7 µmol/dL | ATP ([1]; 5 mM DTBP 5 h, after 72 hours in PBS at 4° C.): 51.7 µmol/dL | ATP Content ([1]; 5 mM DTBP 5 h, final 24 hrs in glucose after PBS): 51.5 µmol/dL | ATP Content ([1]; 5 mM DTBP 5 h at 4° C., 24 hrs in glucose (first)): 76.1 µmol/dL | hemolysis in distilled water ([2]; 1 or 3 mM DTBP, even after prolonged incubation times): did not produce cells stable to hemolysis in distilled water | hemolysis at 5000 µM ([2]; Homo sapiens, Erythrocyte, 3 h, read-out: hemolysis in distilled water): 100% | hemolysis at 5000 µM [2, 3]: 88% | hemolysis at 7000 µM [2, 3]: 21% | hemolysis at 10000 µM [2, 3]: 0% | hemolysis at 5000 µM ([2]; Homo sapiens, Erythrocyte, 5 h, read-out: hemolysis in distilled water): 67% | hemolysis at 5000 µM ([2]; Homo sapiens, Erythrocyte, 7 h, read-out: hemolysis after the treatment with DTT): 35% | hemolysis at 5000 µM ([2]; Homo sapiens, Erythrocyte, 7 h, read-out: hemolysis in distilled water): 45% | hemolysis at 5000 µM ([2]; Homo sapiens, Erythrocyte, 24 h, read-out: hemolysis after the treatment with DTT): 100% | hemolysis at 5000 µM ([2]; Homo sapiens, Erythrocyte, 24 h, read-out: hemolysis in distilled water): 10% | stability in the presence of the reducing agent (DTT) ([2]; cells with lower degree of stabilization (5 mM DTBP 5 h, 67% lysis in water)): stable in the presence of the reducing agent
